Measurements taken from patent US8252522B2, “Species detection methods and systems” (The Regents of the University of California, priority 2007, dated 2012).

Experiments:
[1] = system: bacterial spores; settings: within the duration of the mixing
[2] = system: different bacteria (E. coli and two bacilli)
Description: Kinetics of fluorescence enhancement of 64 μM THIA in the presence of different bacteria (10^6 cell/mL) in TRIS buffer, pH=8.5 (λex=420 nm, λem=470 nm). The time constants, τ, are inversely proportional to the rate constants, k=1/τ. The biexponential data fits assume pseudo-first-order processes. At about 50 s into the data acquisition, the bacteria are injected and into a stirred solution of the dye.
To simplify the kinetic analysis, the assays can be conducted under two types of extreme conditions that will assure that the first step, k1, can be approximated to pseudo-first-order process: (1) the dye is in excess to the binding sites on the bacterial surface; or (2) the binding sites on the bacterial surface are in excess to the dye. Under such conditions, the kinetics of fluorescence enhancement should manifest bi- (or multi-) exponential rises:
[formula] where FM is the maximum fluorescence intensity (the saturation level on the curves); dt is the injection time; Fi are the pre-exponential coefficients; and ti are the time constants for the various processes: τi=1/ki. […]
The samples are illuminated at a region where the staining dye absorbs and the emission is monitored (the fluorescence intensity is recorded every second) at the wavelength maximum of the fluorescence spectrum of the dye (FIG. 2). […] This plateau emission maximum is what is measured with the regular staining procedures. […]

[3] = system: bacterial spores vs vegetative bacteria; settings: microfluidic device, detection about few seconds after mixing
Description: (§1) A solution of a benzothiazole dye, THIA, was used (FIG. 1a), in a continuous-flow microfluidic device for detection of bacterial species, as described for a terbium (III) different emission assay.
(§2) For the steady-state experiments the dye is mixed with the samples and allowed to incubate for five minutes. In the microfluidic device, however, the dye is mixed with the bacterial sample and carried to the area for emission detection in about few seconds after the mixing.

[4] = system: bacterial spores; settings: steady-state, incubated for five minutes
Description: as §1, §2

## CCN1/C(=C/c2sc3ccccc3[n+]2CC)Sc2ccccc21.[I-] [THIA, 3,3′-Diethylthiacyanine iodide]
[1]
  time of emission enhancement by bacterial spores: within a second or less
[2]; all three species
  response to staining: positive response
[2]; vegetative bacteria
  duration of the emission intensity increase after initial mixing: continues to increase for several minutes
[3]
  signal from bacterial spores relative to signal from vegetative bacteria: about 13 times
[4]
  increase in emission intensity in the presence of bacterial spores: about an order of magnitude increase
